Laboratory results as given in US20260317312A1, “ISOXAZOLIDINES AS RIPK1 INHIBITORS AND USE THEREOF” (GENZYME CORPORATION, priority 2023, published 2026).

Legend:
U937 cells = test: Cellular assay in U937 cells to measure activity of RIPK1-inhibitors on cell death (necroptosis); type: cell-based; details: overnight (18 to 24 hrs), 37° C., MTS readout
Source text: Upon TNF-Receptor I ligation, Ser/Thr kinase RIPK1 is recruited to a transient receptor complex I. Upon modification of RIPK1 which promotes activation of RIPK1, complex lib can form, that involves recruitment of RIPK3 and MLKL (mixed lineage-kinase domain-like protein) which then translocates from the cytosol to the plasma membrane to execute cell death (Cai, Z. et al, Nat. Cell Biol. (2014)16:55-65).
Cell death was quantified in 96 well plates by determination of the amount of live cell using a CellTiter 96 Aqueous reagent (Promega), a calorimetric method to measure the number of live cells by reducing tetrazolium compound [3-(4,5-dimethylthiazol-2-yl)-5-(3-carboxymethoxyphenyl)-2-(4-sulfophenyl)-2H-tetrazolium, inner salt; MTS] into formazan. Absorbance of formazan was read at 490 nm. The inhibitory activity of the test compound was quantified in a concentration response curve (CRC) experiment.
Compounds were obtained as 10 mM stock solutions and were diluted 1 to 10 volumes with DMSO to yield a 1 mM solution. From this solution 2 μl were diluted with 998 μl growth medium. 100 μl of 2 μM compound solution was further diluted sequentially with a dilution factor of 2.5 by adding 150 μl growth medium. A total of 10 concentrations were tested ranging from 10 μM to 0.26 nM or from 1 μM to 0.07 nM.
U937 cells were cultured in RPM11640 Glutamax and 10% heat inactivated FBS. 50 μl cell suspension containing 1×10^6 cells/ml supplemented with 50 μM zVAD.fmk (Benzyloxycarbonyl-Val-Ala-Asp (Ome) fluoromethylketone) and 100 ng/ml recombinant human TNFα were dispensed in each well of a 96-well plate. 50 μl of compound dilutions (described in Cellular assay in U937 cells) were added and the cell suspension incubated overnight (18 to 24 hrs) at 37° C., 5% CO2 in a humidified atmosphere (95% rH). High (no compound) and low control (no TNFα, zVAD.fmk) were tested with 7 replicates; all compound concentrations were tested in duplicates on each experimental plate.
CellTiter 96 Aqueous reagent was mixed (100 μl PMS (phenazine methosulfate) solution/2 ml MTS (3-(4,5-[…])-5-(3-carboxymethoxyphenyl)-2-(4-sulfophenyl)-2H-tetrazolium, inner salt) solution) and 20 μl were added per well. After 4 hrs incubation at 37° C. (5% CO2 95% rH) optical density was measured at 490 nm on a microplate reader (Tecan Infinite M1000).
The % inhibition is expressed as percentage of the maximal inhibition value obtained in the absence of TNFα/zVAD.fmc.

[1] = target: T1, hRIPK1 (aa 1-375) fusion protein (Homo sapiens, UniProt Q13546); test: Receptor-Interacting Protein Kinase 1 inhibition, ADP Glo assay (conversion of ATP to ADP due to autophosphorylation); type: biochemical; details: ATP 50 μM, 30 min preincubation, 240 min incubation, room temperature, DMSO 1%
T1 construct: hRIPK1 (aa 1-375) fusion protein
T1 sequence (Q13546 1-375): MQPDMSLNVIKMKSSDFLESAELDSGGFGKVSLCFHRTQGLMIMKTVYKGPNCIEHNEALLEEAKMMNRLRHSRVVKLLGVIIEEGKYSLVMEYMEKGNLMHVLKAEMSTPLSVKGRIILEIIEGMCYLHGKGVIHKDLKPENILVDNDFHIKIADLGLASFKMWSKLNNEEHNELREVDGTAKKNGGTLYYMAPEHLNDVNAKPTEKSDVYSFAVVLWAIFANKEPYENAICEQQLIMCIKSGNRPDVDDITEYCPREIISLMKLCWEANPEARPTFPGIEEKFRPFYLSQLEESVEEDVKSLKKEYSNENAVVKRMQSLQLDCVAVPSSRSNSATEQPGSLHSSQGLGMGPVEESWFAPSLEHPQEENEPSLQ
Description: The catalytic activity of RIPK1 was measured by monitoring the conversion of Adenosine triphosphate (ATP) to Adenosine diphosphate (ADP) due to autophosphorylation using an ADP-Glo kinase kit (Promega, catalog no. V9104).
In detail, 2 μl recombinantly produced hRIPK1 (aa 1-375) fusion protein (end concentration 3.6 μg/ml) and 2 μl compound (end concentration 33300-1.69 nM; DMSO end concentration 1%) were incubated for 30 minutes at room temperature and then 2 μl ATP (ADP Glo kit, end concentration 50 μM) were added. After another 240 minutes incubation at room temperature, 5 μl Promega ADP-Glo reagent I was added to quench the reaction and deplete unconsumed ATP. After an incubation period of 30 minutes, 10 μl Promega ADP-Glo detection reagent II was added resulting in conversion of ADP to ATP, which generates a light-reaction between luciferase and luciferin. Luminescence was quantified after 30 minutes with a Pherastar FS (BMG LABTECH, Ortenberg).
The adjustment was obtained by nonlinear regression using the Levenberg Marquardt algorithm.

[2] = Homo sapiens, U-937, TNFα/zVAD.fmk induced cell death (necroptosis)
[3] = TNFα/zVAD.fmk induced cell death (necroptosis)

IC50 [1] [nM] | SMILES | IC50 (U937 cells; [2]) [nM] | IC50 (U937 cells; [3]) [nM]
38 | NC(=O)c1ccc(OC[C@H]2CC[C@H](C(=O)N3OCC[C@H]3c3cnccn3)CC2)c(F)c1 [Compound 113, trans-3-fluoro-4-[[4-[(3S)-3-pyrazin-2-ylisoxazolidine-2-carbonyl]cyclohexyl]methoxy]benzamide] | 97 | 
21 | C[C@]1(C(=O)N2OCC[C@H]2c2cc(F)cc(F)c2)C[C@@H](Nc2nccc(C(N)=O)n2)C1 [Compound 6, cis-2-((3-((S)-3-(3,5-difluorophenyl)isoxazolidine-2-carbonyl)-3-methylcyclobutyl)amino)pyrimidine-4-carboxamide] | 6 | 
38 | CC1(C)OC(=O)N(c2ccc(Cl)c(OC[C@H]3CC[C@H](C(=O)N4OCC[C@H]4c4cc(F)cc(F)c4)CC3)c2)C1=O [Compound 57, trans-3-(4-chloro-3-((4-((S)-3-(3,5-difluorophenyl)isoxazolidine-2-carbonyl)cyclohexyl)methoxy)phenyl)-5,5-dimethyloxazolidine-2,4-dione] | 37 | 
257 | O=C([C@H]1C[C@H](n2cnc3cc(F)ccc32)C1)N1OCC[C@H]1c1cccc(F)c1 [Compound 84, trans-(3-(5-fluoro-1H-benzo[d]imidazol-1-yl)cyclobutyl)((S)-3-(3-fluorophenyl)isoxazolidin-2-yl)methanone] | 428 | 
29 | NC(=O)c1cc(OCC2CCC(C(=O)N3OCC[C@H]3c3cc(F)cc(F)c3)C2)ncn1 (single isomer, unassigned; stereoisomer 2) [Compound 119] |  | 388
86 | N#Cc1cc(F)cc([C@@H]2CCON2C(=O)[C@H]2CC[C@H](CNc3cc(C(N)=O)ncn3)CC2)c1 [Compound 29, trans-6-(((4-((S)-3-(3-cyano-5-fluorophenyl)isoxazolidine-2-carbonyl)cyclohexyl)methyl)amino)pyrimidine-4-carboxamide] | 561 | 
26 | O=C([C@H]1C[C@@H](n2ccc3cc(F)ccc32)C1)N1OCC[C@H]1c1cc(F)cc(F)c1 [Compound 108, cis-[(3S)-3-(3,5-difluorophenyl)isoxazolidin-2-yl]-[3-(5-fluoroindol-1-yl)cyclobutyl]methanone] | 94 | 
34 | N#Cc1cc(F)cc(N[C@H]2C[C@@H](C(=O)N3OCC[C@H]3c3cc(F)cc(C#N)c3)C2)c1 [Compound 37, cis-3-((S)-2-(3-((3-cyano-5-fluorophenyl)amino)cyclobutane-1-carbonyl)isoxazolidin-3-yl)-5-fluorobenzonitrile] | 45 | 
43 | Cn1ccn(-c2ccc(OC[C@H]3CC[C@H](C(=O)N4OCC[C@H]4c4cc(F)cc(C#N)c4)CC3)c(F)c2)c1=O [Compound 78, trans-3-fluoro-5-((S)-2-(4-((2-fluoro-4-(3-methyl-2-oxo-2,3-dihydro-1H-imidazol-1-yl)phenoxy)methyl)cyclohexane-1-carbonyl)isoxazolidin-3-yl)benzonitrile] | 9 | 
132 | NC(=O)c1ccnc(C2CCC(C(=O)N3OCC[C@H]3c3cc(F)cc(F)c3)C2)c1 (single isomer, unassigned) [Compound 114] | 816 | 
44 | N#Cc1cc(N[C@H]2C[C@@H](C(=O)N3OCC[C@H]3c3ccc(Cl)cc3)C2)ncn1 [Compound 23, cis-6-((3-((S)-3-(4-chlorophenyl)isoxazolidine-2-carbonyl)cyclobutyl)amino)pyrimidine-4-carbonitrile] | 234 | 
164 | CN1CC(=O)N(c2ccc(Cl)c(OC[C@H]3CC[C@H](C(=O)N4OCC[C@H]4c4cc(F)cc(C#N)c4)CC3)c2)C1=O [Compound 80, trans-3-((S)-2-(4-((2-chloro-5-(3-methyl-2,5-dioxoimidazolidin-1-yl)phenoxy)methyl)cyclohexane-1-carbonyl)isoxazolidin-3-yl)-5-fluorobenzonitrile] | 123 | 
49 | N#Cc1cc(F)cc(N[C@H]2C[C@@H](C(=O)N3OCC[C@H]3c3ccc(F)c(F)c3)C2)c1 [Compound 27, cis-3-((3-((S)-3-(3,4-difluorophenyl)isoxazolidine-2-carbonyl)cyclobutyl)amino)-5-fluorobenzonitrile] | 170 | 
39 | NC(=O)c1cc(OCC2CCCC(C(=O)N3OCC[C@H]3c3cc(F)cc(F)c3)CC2)ncn1 (single isomer, unassigned; stereoisomer 4) [Compound 125] |  | 347
43 | N#Cc1cncc([C@@H]2CCON2C(=O)[C@H]2CC[C@H](COc3ccc(Cl)c(C(N)=O)c3)CC2)c1 [Compound 75, trans-2-chloro-5-((4-((S)-3-(5-cyanopyridin-3-yl)isoxazolidine-2-carbonyl)cyclohexyl)methoxy)benzamide] | 224 | 
55 | N#Cc1cc(F)cc([C@@H]2CCON2C(=O)[C@H]2C[C@@H](n3cc4cc(F)ccc4n3)C2)c1 [Compound 109, cis-3-fluoro-5-[(3S)-2-[3-(5-fluoroindazol-2-yl)cyclobutanecarbonyl]isoxazolidin-3-yl]benzonitrile] | 745 | 
28 | Cc1cc(C)n(-c2ccc(OC[C@H]3CC[C@H](C(=O)N4OCC[C@H]4c4cc(F)cc(F)c4)CC3)c(F)c2)n1 [Compound 62, trans-((S)-3-(3,5-difluorophenyl)isoxazolidin-2-yl)(4-((4-(3,5-dimethyl-1H-pyrazol-1-yl)-2-fluorophenoxy)methyl)cyclohexyl)methanone] | 34 | 
11 | COc1cncc([C@@H]2CCON2C(=O)[C@H]2CC[C@H](COc3cccc(C(N)=O)c3)CC2)n1 [Compound 129, trans-3-[[4-[(3S)-3-(6-methoxypyrazin-2-yl)isoxazolidine-2-carbonyl]cyclohexyl]methoxy]benzamide] | 28 | 
162 | N#Cc1cc(F)cc([C@@H]2CCON2C(=O)[C@H]2CC[C@@H](Nc3cc(C#N)ncn3)CC2)c1 [Compound 28, cis-6-((4-((S)-3-(3-cyano-5-fluorophenyl)isoxazolidine-2-carbonyl)cyclohexyl)amino)pyrimidine-4-carbonitrile] |  | 

SMILES | IC50 [1] [nM] | IC50 (U937 cells; [2]) [nM] | IC50 (U937 cells; [3]) [nM]
N#Cc1cc(F)cc(O[C@H]2C[C@@H](C(=O)N3OCC[C@H]3c3cc(F)cc(F)c3)C2)c1 [Compound 61, cis-3-(3-((S)-3-(3,5-difluorophenyl)isoxazolidine-2-carbonyl)cyclobutoxy)-5-fluorobenzonitrile] | 54 | 126 | 
N#Cc1cc(O[C@H]2C[C@@H](C(=O)N3OCC[C@H]3c3cc(F)cc(F)c3)C2)ccc1F [Compound 65, cis-5-(3-((S)-3-(3,5-difluorophenyl)isoxazolidine-2-carbonyl)cyclobutoxy)-2-fluorobenzonitrile] | 18 | 49 | 
